Measured values from patent US7320972B2, “4-Biarylyl-1-phenylazetidin-2-ones” (Microbia, Inc., priority 2003, dated 2008).

Test system: cholesterol absorption (serum 3H-cholesterol)
Assay: In Vivo Assay of Hypolipidemic Agents using the Rat Cholesterol Absorption Model
Parameters: species or system Sprague-Dawley rats
Conditions: peroral; for % inhibition at 10 mg/kg: 10 mg/kg (footnote 1); for inhibition in vivo at 1 mg/kg: po, serum 3H-cholesterol 3 h after cholesterol dose, vs vehicle control
Description: In Vivo Assay of Hypolipidemic Agents using the Rat Cholesterol Absorption Model. This model is based on models described by Burnett et al (2002), Bioorg. Med. Chem. Lett. 2002 Feb. 11;12(3):315-8 and J. Lipid Res. 1999 October;40(10):1747-57. Female Sprague-Dawley rats weighing 150-250 g are separated into groups of […] and fasted overnight. The animals (4-6/group) are dosed perorally with 300 μL test compounds in olive oil or suitable vehicle. Thirty minutes later, 3-5 microCuries ^3H-cholesterol per rat are delivered perorally in 300 μL olive oil. After three hours, 200 μL serum is collected, vortexed with scintillation fluid, and measured for radioactivity in a scintillation counter. Percent inhibition is defined as 100*(1−Ctest/Cctrl), where Ctest and Cctl refer to ^3H levels in serum for the test compound and for the vehicle only control, respectively. Percent inhibition values are reported for a fixed dose. The ED50 is the dose at which the half-maximal effect on serum ^3H levels is observed for a given test compound.
Representative compounds of the invention were tested in the Rat Cholesterol Absorption model above.

[1] = serum 3H-cholesterol vs vehicle control

O=C1[C@H](CC[C@H](O)c2ccc(F)cc2)[C@@H](c2ccc(-c3ccccc3)cc2)N1c1ccc(F)cc1 [Example 3, (3R,4S)-4-Biphenyl-4-yl-1-(4-fluorophenyl)-3-[(3S)-3-(4-fluorophenyl)-3-hydroxypropyl]azetidin-2-one]
% inhibition at 10 mg/kg [1]: 15^1%

COc1cccc(-c2ccc([C@@H]3[C@@H](CC[C@H](O)c4ccc(F)cc4)C(=O)N3c3ccc(F)cc3)cc2)c1 [Example 12, (3R,4S)-1-(4-fluorophenyl)-3-[(3S)-3-(4-fluorophenyl)-3-hydroxypropyl]-4-(3′-methoxybiphenyl-4-yl)azetidin-2-one]
inhibition in vivo at 1 mg/kg: 70%

O=Cc1cccc(-c2ccc([C@@H]3[C@@H](CC[C@H](O)c4ccc(F)cc4)C(=O)N3c3ccc(F)cc3)cc2)c1 [Example 13, 4′-{(2S,3R)-1-(4-fluorophenyl)-3-[(3S)-3-(4-fluorophenyl)-3-hydroxypropyl]-4-oxoazetidin-2-yl}biphenyl-3-carbaldehyde]
inhibition in vivo at 1 mg/kg: 70%

N#Cc1cccc(-c2ccc([C@@H]3[C@@H](CC[C@H](O)c4ccc(F)cc4)C(=O)N3c3ccc(F)cc3)cc2)c1 [Example 14, 4′-{(2S,3R)-1-(4-fluorophenyl)-3-[(3S)-3-(4-fluorophenyl)-3-hydroxypropyl]-4-oxoazetidin-2-yl}biphenyl-3-carbonitrile]
% inhibition at 5 mg/kg (5 mg/kg (footnote 3), serum 3H-cholesterol vs vehicle control): 32^3%

CN(C)S(=O)(=O)c1ccc(-c2ccc([C@@H]3[C@@H](CC[C@H](O)c4ccc(F)cc4)C(=O)N3c3ccc(F)cc3)cc2)cc1 [Example 15, 4′-{(2S,3R)-1-(4-fluorophenyl)-3-[(3S)-3-(4-fluorophenyl)-3-hydroxypropyl]-4-oxoazetidin-2-yl}biphenyl-N,N-dimethylbiphenyl-4-sulfonamide]
inhibition in vivo at 1 mg/kg: 8%

O=C1[C@H](CC[C@H](O)c2ccc(F)cc2)[C@@H](c2ccc(-c3cccc(CO)c3)cc2)N1c1ccc(F)cc1 [Example 16, (3R,4S)-1-(4-Fluorophenyl)-3-[(3S)-3-(4-fluorophenyl)-3-hydroxypropyl]-4-(3′-(hydroxymethyl)biphenyl-4-yl)azetidin-2-one]
inhibition in vivo at 1 mg/kg: 72%

CN(C)c1ccc(-c2ccc([C@@H]3[C@@H](CC[C@H](O)c4ccc(F)cc4)C(=O)N3c3ccc(F)cc3)cc2)cc1 [Example 17, (3R,4S)-4-[4′(dimethylamino)biphenyl-4-yl]-1-(4-fluorophenyl)-3-[(3S)-3-(4-fluorophenyl)-3-hydroxypropyl]azetidin-2-one]
inhibition in vivo at 1 mg/kg: 43%

O=C1[C@H](CC[C@H](O)c2ccc(F)cc2)[C@@H](c2ccc(-c3ccc(CO)cc3)cc2)N1c1ccc(F)cc1 [Example 18]
inhibition in vivo at 1 mg/kg: 48%

O=C1[C@H](CC[C@H](O)c2ccc(F)cc2)[C@@H](c2ccc(-c3cc(O)ccc3Br)cc2)N1c1ccc(F)cc1 [Example 19, (3R,4S)-4-(2′-bromo-5′-hydroxybiphenyl-4-yl)-1-(4-fluorophenyl)-3-[(3S)-3-(4-fluorophenyl)-3-hydroxypropyl]azetidin-2-one]
inhibition in vivo at 1 mg/kg: 66%

O=C(O)[C@@H]1O[C@H](Oc2cccc(-c3ccc([C@@H]4[C@@H](CC[C@H](O)c5ccc(F)cc5)C(=O)N4c4ccc(F)cc4)cc3)c2)[C@@H](O)[C@H](O)[C@H]1O [Example 20, 4′-{(2S,3R)-1-(4-fluorophenyl)-3-[(3S)-3-(4-fluorophenyl)-3-hydroxypropyl]-4-oxoazetidin-2-yl}biphenyl-3-yl β-L-glucopyranosiduronic Acid]
inhibition in vivo at 1 mg/kg: 59%

O=C(O)c1cccc(-c2ccc([C@@H]3[C@@H](CC[C@H](O)c4ccc(F)cc4)C(=O)N3c3ccc(F)cc3)cc2)c1 [Example 21, 4′-{(2S,3R)-1-(4-fluorophenyl)-3-[(3S)-3-(4-fluorophenyl)-3-hydroxypropyl]-4-oxoazetidin-2-yl]biphenyl-3-carboxylic acid]
inhibition in vivo at 1 mg/kg: 68%

O=C(O)c1ccc(-c2ccc([C@@H]3[C@@H](CC[C@H](O)c4ccc(F)cc4)C(=O)N3c3ccc(F)cc3)cc2)cc1 [Example 22, 4′-{(2S,3R)-1-(4-fluorophenyl)3-[(3S)-3-(4-fluorophenyl)-3-hydroxypropyl]-4-oxoazetidin-2-yl]biphenyl-4-carboxylic acid]
inhibition in vivo at 1 mg/kg: 52%

O=C1[C@H](CC[C@H](O)c2ccc(F)cc2)[C@@H](c2ccc(-c3cccc([N+](=O)[O-])c3)cc2)N1c1ccc(F)cc1 [Example 23, (3R,4S)-1-(4-fluorophenyl)-3-[(3S)-3-(4-fluorophenyl)-3-hydroxypropyl]-4-(3′-nitrobiphenyl-4-yl)azetidin-2-one]
% inhibition at 10 mg/kg [1]: 54^1%

CC(=O)Nc1cccc(-c2ccc([C@@H]3[C@@H](CC[C@H](O)c4ccc(F)cc4)C(=O)N3c3ccc(F)cc3)cc2)c1 [Example 26, N-(4′-{(2S,3R)-1-(4-fluorophenyl)-3-[(3S)-3-(4-fluorophenyl)-3-hydroxypropyl]-4-oxoazetidin-2-yl}biphenyl-3-yl)acetamide]
% inhibition at 10 mg/kg [1]: 76^1%

Nc1ccc(-c2ccc([C@@H]3[C@@H](CC[C@H](O)c4ccc(F)cc4)C(=O)N3c3ccc(F)cc3)cc2)cc1 [Example 28, (3R,4S)-4-(4′-aminobiphenyl-4-yl)-1-(4-fluorophenyl)-3-[(3S)-3-(4-fluorophenyl)-3-hydroxypropyl]azetidin-2-one]
inhibition in vivo at 1 mg/kg: 56%

O=C1[C@H](CC[C@H](O)c2ccc(F)cc2)[C@@H](c2ccc(-c3cccc(O)c3)cc2O)N1c1ccccc1 [Example 42, (3R,4S)-4-(3,3′-Dihydroxybiphenyl-4-yl)-3-[(3S)-3-(4-fluorophenyl)-3-hydroxypropyl]-1-phenylazetidin-2-one]
inhibition in vivo at 1 mg/kg: 87%

O=C1[C@H](CC[C@H](O)c2ccc(F)cc2)[C@@H](c2cccc(-c3cccc(O)c3)c2)N1c1ccc(F)cc1 [Example 44, (3R,4S)-1-(4-fluorophenyl)-3-[(3S)-3-(4-fluorophenyl)-3-hydroxypropyl]-4-(3′-hydroxybiphenyl-3-yl)azetidin-2-one]
inhibition in vivo at 1 mg/kg: 24%

O=C1[C@H](CC[C@H](O)c2ccc(F)cc2)[C@@H](c2ccc(Br)cc2)N1c1ccccc1 [Example 46, (3R,4S)-4-(4-Bromophenyl)-3-[(3S)-3-(4-fluorophenyl)-3-hydroxypropyl]-1-phenylazetidin-2-one]
inhibition in vivo at 1 mg/kg: 30%

O=C1[C@H](CC[C@H](O)c2ccc(F)cc2)[C@@H](c2ccc(-c3cccc(O)c3)cn2)N1c1ccccc1 [Example 49, (3R,4S)-3-[(3S)-3-(4-Fluorophenyl)-3-hydroxypropyl]-4-[5-(3-hydroxyphenyl)pyridin-2-yl]-1-phenylazetidin-2-one]
inhibition in vivo at 1 mg/kg: 30%

O=C1[C@H](CC[C@H](O)c2ccc(F)cc2)[C@@H](c2ccc(-c3cccc(O)c3)s2)N1c1ccccc1 [Example 50, (3R,4S)-3-[(3S)-3-(4-Fluorophenyl)-3-hydroxypropyl]-4-[5-(3-hydroxyphenyl)-2-thienyl]-1-phenylazetidin-2-one]
inhibition in vivo at 1 mg/kg: 27%

O=C1[C@H](CC[C@H](O)c2ccc(F)cc2)[C@@H](c2ccc(-c3ccc(O)cc3)s2)N1c1ccccc1 [Example 51, (3R,4S)-3-[(3S)-3-(4-Fluorophenyl)-3-hydroxypropyl]-4-[5-(4-hydroxyphenyl)-2-thienyl]-1-phenylazetidin-2-one]
inhibition in vivo at 1 mg/kg: 39%
